The values below come from paper PMC3138873 (Biochemical pharmacology, 2011).

Where two headings read alike, the source gives them in different places.

Experiment [1] has as its target T1, AC1 (Bos taurus, UniProt P19754). In words: AC activity assay in Sf9 membranes expressing recombinant AC1. It counts as biochemical, mammalian.
In experiment [2] the target is T2, AC2 (Rattus norvegicus, UniProt P26769). Nature of the experiment: AC activity assay in Sf9 membranes expressing recombinant AC2. It is filed as biochemical, mammalian.
T2 sequence (P26769 whole entry): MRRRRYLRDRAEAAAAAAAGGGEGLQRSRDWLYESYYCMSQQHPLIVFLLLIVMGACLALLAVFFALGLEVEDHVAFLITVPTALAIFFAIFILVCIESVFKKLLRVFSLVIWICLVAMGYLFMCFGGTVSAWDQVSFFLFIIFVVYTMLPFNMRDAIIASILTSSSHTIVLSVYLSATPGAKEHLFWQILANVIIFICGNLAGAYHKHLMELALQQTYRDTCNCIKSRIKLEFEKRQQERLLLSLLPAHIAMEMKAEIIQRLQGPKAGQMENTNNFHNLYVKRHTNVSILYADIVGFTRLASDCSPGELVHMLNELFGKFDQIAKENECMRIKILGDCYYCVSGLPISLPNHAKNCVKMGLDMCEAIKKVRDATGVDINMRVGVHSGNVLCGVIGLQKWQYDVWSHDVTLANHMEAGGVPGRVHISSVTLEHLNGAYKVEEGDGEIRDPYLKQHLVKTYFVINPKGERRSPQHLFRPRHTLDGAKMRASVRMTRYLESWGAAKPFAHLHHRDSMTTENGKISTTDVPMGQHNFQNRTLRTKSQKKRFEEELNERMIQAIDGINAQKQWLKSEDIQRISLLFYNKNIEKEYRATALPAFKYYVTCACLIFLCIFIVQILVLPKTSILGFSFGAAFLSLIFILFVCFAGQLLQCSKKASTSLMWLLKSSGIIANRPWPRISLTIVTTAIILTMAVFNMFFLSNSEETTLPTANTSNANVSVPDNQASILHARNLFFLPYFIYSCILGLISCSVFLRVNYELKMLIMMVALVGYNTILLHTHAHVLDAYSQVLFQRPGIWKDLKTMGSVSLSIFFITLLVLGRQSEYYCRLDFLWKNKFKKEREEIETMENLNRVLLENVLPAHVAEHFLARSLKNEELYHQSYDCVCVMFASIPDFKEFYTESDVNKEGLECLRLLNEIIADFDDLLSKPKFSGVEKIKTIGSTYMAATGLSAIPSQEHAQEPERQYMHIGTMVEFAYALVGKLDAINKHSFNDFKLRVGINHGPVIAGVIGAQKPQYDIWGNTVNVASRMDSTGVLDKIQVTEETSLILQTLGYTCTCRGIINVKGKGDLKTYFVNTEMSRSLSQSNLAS
In experiment [3] the target is T3, AC5 (Canis lupus familiaris, UniProt P30803). Nature of the experiment: AC activity assay in Sf9 membranes expressing recombinant AC5. It is filed as biochemical, mammalian. The following applies: for Potency difference AC5 versus AC2: comparison of Ki at AC5 versus AC2.
T3 sequence (P30803 whole entry): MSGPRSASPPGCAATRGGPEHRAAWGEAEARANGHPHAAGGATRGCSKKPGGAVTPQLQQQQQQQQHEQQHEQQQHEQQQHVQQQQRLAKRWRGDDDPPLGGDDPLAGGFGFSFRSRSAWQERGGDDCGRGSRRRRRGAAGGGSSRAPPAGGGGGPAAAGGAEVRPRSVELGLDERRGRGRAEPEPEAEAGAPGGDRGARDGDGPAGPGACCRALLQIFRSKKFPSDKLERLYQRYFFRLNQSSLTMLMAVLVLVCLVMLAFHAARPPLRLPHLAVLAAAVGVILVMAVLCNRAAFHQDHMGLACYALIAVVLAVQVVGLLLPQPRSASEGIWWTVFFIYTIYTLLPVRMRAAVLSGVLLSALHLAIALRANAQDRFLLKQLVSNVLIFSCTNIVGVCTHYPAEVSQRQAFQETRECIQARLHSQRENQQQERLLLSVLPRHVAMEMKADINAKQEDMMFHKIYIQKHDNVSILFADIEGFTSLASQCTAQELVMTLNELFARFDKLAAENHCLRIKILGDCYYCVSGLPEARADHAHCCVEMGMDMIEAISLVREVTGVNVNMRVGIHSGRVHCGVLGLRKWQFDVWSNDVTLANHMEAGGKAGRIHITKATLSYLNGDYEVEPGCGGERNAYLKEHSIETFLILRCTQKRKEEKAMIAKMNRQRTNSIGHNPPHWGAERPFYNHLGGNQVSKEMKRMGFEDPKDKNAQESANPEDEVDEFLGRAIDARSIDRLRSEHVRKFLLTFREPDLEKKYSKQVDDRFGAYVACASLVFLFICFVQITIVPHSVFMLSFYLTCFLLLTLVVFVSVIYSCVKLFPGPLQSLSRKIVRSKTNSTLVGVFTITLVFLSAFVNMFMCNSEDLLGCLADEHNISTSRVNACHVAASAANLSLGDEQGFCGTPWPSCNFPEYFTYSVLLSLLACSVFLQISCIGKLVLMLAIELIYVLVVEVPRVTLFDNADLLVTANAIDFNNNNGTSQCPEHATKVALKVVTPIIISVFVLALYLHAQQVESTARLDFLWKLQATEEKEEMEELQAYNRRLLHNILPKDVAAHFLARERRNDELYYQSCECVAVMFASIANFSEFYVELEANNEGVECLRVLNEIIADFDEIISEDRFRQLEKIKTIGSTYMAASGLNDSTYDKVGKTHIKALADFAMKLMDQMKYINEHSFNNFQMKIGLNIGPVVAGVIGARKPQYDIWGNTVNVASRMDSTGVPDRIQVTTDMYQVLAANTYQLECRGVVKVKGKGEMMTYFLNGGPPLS
Experiment [4] concerns the target T4, VC1:IIC2 (UniProt P26769+P30803). In words: Inhibition of the catalytic activity of purified VC1:IIC2. It counts as biochemical, mammalian.
The target in experiment [5] is T4, VC1:IIC2. The following applies: cited from earlier work.
In another experiment the target is ACs 1, 2 and 5. Conditions: read-out: Ki for ACs 1, 2 and 5; TNP-nucleotides; cited from earlier work.
In experiment [6] the target is T1, AC1. The following applies: read-out: AC1 Ki; Sf9 membranes, 5 mM MnCl2, 100 μM FS; mean ± SD; cited from earlier work.
Experiment [7] has as its target T3, AC5. Conditions: read-out: AC5 Ki; Sf9 membranes, 5 mM MnCl2, 100 μM FS; mean ± SD; cited from earlier work.
Experiment [8] concerns the target T2, AC2. The following applies: read-out: AC2 Ki; Sf9 membranes, 5 mM MnCl2, 100 μM FS; mean ± SD; cited from earlier work.
The mark [9] stands for this setting: VC1:IIC2 Mn2+ + FS + Gsα-GTPγS Ki, maximally stimulated: 10 mM MnCl2, 100 μM FS, 100 μM ATP, mean ± SD.
Where [10] appears, read: read-out: VC1:IIC2 Mn2+ + FS + Gsα-GTPγS Ki, maximally stimulated: 10 mM MnCl2, 100 μM FS, 100 μM ATP, mean ± SD.
Setting [11] is: read-out: AC1 Ki, Sf9 membranes, 5 mM MnCl2, 100 μM FS, mean ± SD.
[12] abbreviates: read-out: VC1:IIC2 Mn2+ + FS + Gsα-GTPγS Ki, maximally stimulated: 10 mM MnCl2, 100 μM FS, Gsα-GTPγS, mean ± SD.
Setting [13] is: read-out: AC2 Ki, Sf9 membranes, 5 mM MnCl2, 100 μM FS, mean ± SD.
The mark [14] stands for this setting: read-out: AC5 Ki, Sf9 membranes, 5 mM MnCl2, 100 μM FS, mean ± SD.
Where [15] appears, read: read-out: Ki for VC1:IIC2, TNP-nucleotides.

T1 sequence (P19754 whole entry): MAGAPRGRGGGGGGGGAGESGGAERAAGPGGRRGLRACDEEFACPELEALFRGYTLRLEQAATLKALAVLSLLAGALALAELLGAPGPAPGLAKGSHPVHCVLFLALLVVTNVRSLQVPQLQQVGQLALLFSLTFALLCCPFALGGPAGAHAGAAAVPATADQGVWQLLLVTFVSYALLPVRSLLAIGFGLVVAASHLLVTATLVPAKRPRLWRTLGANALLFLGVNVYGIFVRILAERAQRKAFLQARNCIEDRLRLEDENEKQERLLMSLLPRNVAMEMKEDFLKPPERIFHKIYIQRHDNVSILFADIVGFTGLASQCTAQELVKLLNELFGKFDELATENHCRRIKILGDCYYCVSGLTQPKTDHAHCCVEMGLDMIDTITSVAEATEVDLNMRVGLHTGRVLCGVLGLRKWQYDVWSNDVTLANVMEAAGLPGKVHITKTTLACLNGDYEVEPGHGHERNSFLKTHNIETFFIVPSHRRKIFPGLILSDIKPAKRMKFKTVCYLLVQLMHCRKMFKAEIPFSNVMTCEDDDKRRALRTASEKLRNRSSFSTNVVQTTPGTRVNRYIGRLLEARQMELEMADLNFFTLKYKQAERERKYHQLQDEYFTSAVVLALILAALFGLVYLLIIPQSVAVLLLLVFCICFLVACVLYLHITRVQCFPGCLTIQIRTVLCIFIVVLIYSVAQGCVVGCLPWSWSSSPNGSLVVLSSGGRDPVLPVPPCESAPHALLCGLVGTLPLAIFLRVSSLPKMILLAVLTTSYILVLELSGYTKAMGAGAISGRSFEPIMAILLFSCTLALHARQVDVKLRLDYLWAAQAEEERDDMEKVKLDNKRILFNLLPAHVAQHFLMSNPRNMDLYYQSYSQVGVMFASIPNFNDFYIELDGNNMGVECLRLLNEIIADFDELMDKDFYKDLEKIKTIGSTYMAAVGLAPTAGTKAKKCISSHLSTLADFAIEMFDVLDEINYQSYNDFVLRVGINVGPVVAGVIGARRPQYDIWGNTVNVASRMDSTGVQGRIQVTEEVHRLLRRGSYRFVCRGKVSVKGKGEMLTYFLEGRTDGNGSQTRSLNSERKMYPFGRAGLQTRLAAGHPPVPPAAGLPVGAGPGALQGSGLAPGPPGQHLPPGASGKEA
T4 sequence (P30803 398-765 limits assumed): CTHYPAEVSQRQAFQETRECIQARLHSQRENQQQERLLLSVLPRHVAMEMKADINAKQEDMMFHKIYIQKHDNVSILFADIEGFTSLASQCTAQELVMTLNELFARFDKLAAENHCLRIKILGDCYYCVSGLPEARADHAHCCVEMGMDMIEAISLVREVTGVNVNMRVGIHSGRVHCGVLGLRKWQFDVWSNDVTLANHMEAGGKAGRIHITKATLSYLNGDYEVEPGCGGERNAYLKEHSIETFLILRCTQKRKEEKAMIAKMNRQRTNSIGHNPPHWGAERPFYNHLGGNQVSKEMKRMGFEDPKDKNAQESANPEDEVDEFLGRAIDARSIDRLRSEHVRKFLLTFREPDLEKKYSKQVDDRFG
T4 sequence (P26769 821-1090 limits assumed): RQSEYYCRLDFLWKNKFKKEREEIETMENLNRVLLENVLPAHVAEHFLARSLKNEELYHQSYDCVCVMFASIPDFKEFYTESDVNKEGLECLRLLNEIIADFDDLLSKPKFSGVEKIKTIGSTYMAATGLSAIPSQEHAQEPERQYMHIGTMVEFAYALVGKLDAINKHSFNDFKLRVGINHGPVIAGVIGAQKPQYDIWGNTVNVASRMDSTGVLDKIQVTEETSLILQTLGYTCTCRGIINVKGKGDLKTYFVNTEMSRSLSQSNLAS
T4 sequence (P04896 whole entry partner): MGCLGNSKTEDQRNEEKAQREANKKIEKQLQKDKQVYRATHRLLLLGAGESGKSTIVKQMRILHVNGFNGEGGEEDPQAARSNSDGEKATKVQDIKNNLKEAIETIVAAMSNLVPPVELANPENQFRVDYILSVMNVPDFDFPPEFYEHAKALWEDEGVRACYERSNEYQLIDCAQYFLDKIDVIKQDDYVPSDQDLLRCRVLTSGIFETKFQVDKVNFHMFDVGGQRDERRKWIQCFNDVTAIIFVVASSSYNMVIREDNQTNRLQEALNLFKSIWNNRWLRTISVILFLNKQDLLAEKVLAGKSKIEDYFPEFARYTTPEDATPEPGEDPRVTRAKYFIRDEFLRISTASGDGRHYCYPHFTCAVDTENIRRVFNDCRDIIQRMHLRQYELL

A word on the Ki: it is the dissociation constant of the complex between target and ligand, obtained from inhibition or displacement. Regarding `CNc1ccccc1C(=O)O[C@H]1C[C@H](n2cnc3c(=O)[nH]c(N)nc32)O[C@@H]1COP(=O)(O)OP(=O)(O)OP(=O)(O)O` [compound 2, 2’-deoxy-3’-O-(N-methylanthraniloyl)-guanosine 5’-triphosphate], the inhibition constant (Ki) on AC1 [1] turned out to be 0.27 ± 0.03 µM; on AC2 [2] it was 1.3 ± 0.21 µM; at AC5 [3], 0.41 ± 0.035 µM.
`CNc1ccccc1C(=O)O[C@H]1C[C@H](n2cnc3c(N)ncnc32)O[C@@H]1COP(=O)(O)OP(=O)(O)OP(=O)(O)O` [compound 6, 2’-deoxy-3’-O-(N-methylanthraniloyl)-adenosine 5’-triphosphate]: the inhibitory constant (Ki) on VC1:IIC2 [4] (setting [9]) came out at 0.19 ± 0.0034 µM; at AC1 [1], 0.32 ± 0.019 µM; at AC2 [2], 4.8 µM; on AC5 [3], 0.36 ± 0.054 µM. Also, the “Potency difference AC5 versus AC2” value at AC5 [3] is greater than 10 fold.
Consider “2’,3’-O-anthraniloyl-guanosine 5’-triphosphate [compound 13]”, for which the Ki at VC1:IIC2 [4] (setting [10]) stood at 0.01 ± 0.0017 µM.
Turning to “2’,3’-O-(N-methylanthraniloyl)-guanosine 5’-triphosphate [compound 1]”, the Ki was 0.09 ± 0.018 µM at AC1 [1] (setting [11]), 0.018 ± 0.006 µM on VC1:IIC2 [5] (setting [12]), 0.61 ± 0.07 µM at AC2 [2] (setting [13]) and 0.053 ± 0.012 µM at AC5 [3] (setting [14]). Also, on AC5 [3], the “Potency difference AC5 versus AC2” value is given as greater than 10 fold.
Turning to “2’,3’-O-(2,4,6-trinitrophenyl)-CTP [reference compound]”, the Ki was 0.01 to 0.1 µM on ACs 1, 2 and 5; 0.1 to 0.3 µM on VC1:IIC2 [5] (setting [15]).
On to “2’,3’-O-(N-methylanthraniloyl)-uridine 5’-triphosphate [compound 11]”, for which the Ki turned out to be 0.0061 ± 0.0013 µM on VC1:IIC2 [4] (setting [10]), 0.046 ± 0.004 µM at AC1 [1] (setting [11]), 0.46 ± 0.06 µM at AC2 [2] (setting [13]) and 0.032 ± 0.002 µM at AC5 [3] (setting [14]). For the same molecule, the “Potency difference AC5 versus AC2” value on AC5 [3] is greater than 10 fold.
With “2’,3’-O-anthraniloyl-adenosine 5’-diphosphate [compound 15]”, the figures for the Ki at AC1 [1] (setting [11]) and at AC2 [2] (setting [13]) were 0.86 ± 0.01 µM and 2.9 µM, respectively.
“2’,3’-O-(N-methylanthraniloyl)-adenosine 5’-triphosphate [compound 5]”: the Ki on AC1 [6] is 0.15 ± 0.04 µM.
Turning to `CNc1ccccc1C(=O)O[C@@H]1C[C@@H](COP(=O)(O)OP(=O)(O)OP(=O)(O)O)O[C@H]1n1cnc2c(=O)[nH]c(N)nc21` [compound 3, 3’-deoxy-2’-O-(N-methylanthraniloyl)-guanosine 5’-triphosphate], the Ki worked out at 0.35 ± 0.043 µM on VC1:IIC2 [4] (setting [9]), 1.8 µM on AC1 [1], 8.7 µM at AC2 [2] and 1.8 µM on AC5 [3].
With “2’(3’)-O-(N-methylanthraniloyl)-cytidine 5’-triphosphate [compound 12]”, the Ki on VC1:IIC2 [4] (setting [10]) is 0.0092 ± 0.0015 µM; at AC5 [7] it was 0.15 ± 0.03 µM; on AC1 [6], 0.15 ± 0.03 µM; on AC2 [8], 0.69 ± 0.02 µM.
Regarding “2’,3’-O-(2,4,6-trinitrophenyl)-UTP [reference compound]”, the Ki on ACs 1, 2 and 5 is 0.01 to 0.1 µM; at VC1:IIC2 [5] (setting [15]), 0.1 to 0.3 µM.
As for “2’,3’-O-(N-methylanthraniloyl)-guanosine 5’-[γ-thio]triphosphate [compound 4]”, the Ki at VC1:IIC2 [4] (setting [10]) worked out at 0.024 ± 0.0041 µM; on AC1 [1] (setting [11]), 0.063 ± 0.017 µM; on AC2 [2] (setting [13]), 0.37 ± 0.081 µM; on AC5 [3] (setting [14]), 0.034 ± 0.008 µM.
On to “2’,3’-O-anthraniloyl-adenosine 5’-triphosphate [compound 14]”, for which the values for the Ki at AC1 [1] (setting [11]) and on AC2 [2] (setting [13]) were 0.13 ± 0.02 µM and 0.64 ± 0.07 µM, respectively.
For the molecule “2’,3’-O-(N-methylanthraniloyl)-xanthosine 5’-triphosphate [compound 10]”, the Ki at AC1 [1] (setting [11]) was 1.1 µM; on VC1:IIC2 [5] (setting [12]), 1.2 µM; at AC2 [2] (setting [13]), 3 µM; at AC5 [3] (setting [14]), 1.3 µM.
On to `CNc1ccccc1C(=O)O[C@@H]1C[C@@H](COP(=O)(O)OP(=O)(O)OP(=O)(O)O)O[C@H]1n1cnc2c(N)ncnc21` [compound 7, 3’-deoxy-2’-O-(N-methylanthraniloyl)-adenosine 5’-triphosphate], for which the Ki at VC1:IIC2 [4] (setting [9]) was determined as 0.09 ± 0.0022 µM; on AC1 [1], 0.47 ± 0.02 µM; on AC2 [2], 0.54 ± 0.02 µM; at AC5 [3], 0.065 ± 0.005 µM.
